In general, IC50 refers to the concentration that inhibits the measured activity by half. Read a high IC50 as lower potency.

28 molecules from patent publication US12011444B2, “N-substituted indole derivatives as PGE2 receptor modulators” (Idorsia Pharmaceuticals Ltd, priority 2015, dated 2024) can be followed below.

One experiment addresses PTGER2 (EP2) (Homo sapiens (Human), UniProt P43116). As to the kind of experiment: hEP2 b-arrestin assay (PathHunter HEK 293 PTGER2 b-arrestin cells). Format: cell-based. The following applies: hEP2 b-arrestin assay (values without asterisk). An outline of the steps:
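HEK293 cells expressing ProLink-tagged EP2 and EA-fused β-arrestin 2 (enzyme fragment complementation) were seeded 24 h, pre-incubated with compound 15 min at 37 °C, then stimulated with 5 μM PGE2 (final) for 120 min.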

In another experiment the target is PTRGER4 (EP4) (Homo sapiens (Human), UniProt P35408). As to the kind of experiment: hEP4 b-arrestin assay (PathHunter HEK 293 PTGER4 b-arrestin cells). The conditions noted are these: hEP4 b-arrestin assay (values without asterisk). It is filed as cell-based. In short, it runs like this: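 Stably transfected HEK293 cells carrying EP4–ProLink and β-arrestin 2–EA (β-gal fragment complementation), pre-incubated with compound 15 min at 37 °C, then stimulated with PGE2 (20 nM final) for 120 min at 37 °C. Chemiluminescence read after 1 h detection reagent at room temperature; activity per concentration expressed as percent of DMSO control.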
PTRGER4 (EP4), sequence (P35408 whole entry, looked up, the tested form may be a part): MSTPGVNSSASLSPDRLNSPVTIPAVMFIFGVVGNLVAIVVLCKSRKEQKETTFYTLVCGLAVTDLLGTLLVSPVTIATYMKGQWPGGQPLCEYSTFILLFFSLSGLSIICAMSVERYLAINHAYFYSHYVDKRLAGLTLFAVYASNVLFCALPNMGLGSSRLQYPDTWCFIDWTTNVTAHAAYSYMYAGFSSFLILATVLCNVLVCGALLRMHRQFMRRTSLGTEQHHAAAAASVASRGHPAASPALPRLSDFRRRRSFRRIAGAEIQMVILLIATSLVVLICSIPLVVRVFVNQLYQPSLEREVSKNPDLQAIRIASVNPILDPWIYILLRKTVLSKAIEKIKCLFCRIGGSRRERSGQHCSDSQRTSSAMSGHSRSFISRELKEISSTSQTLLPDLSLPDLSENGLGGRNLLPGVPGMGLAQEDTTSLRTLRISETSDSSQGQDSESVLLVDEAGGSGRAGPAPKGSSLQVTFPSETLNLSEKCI

PTGER2 (EP2), sequence (P43116 whole entry, the tested form may be a part): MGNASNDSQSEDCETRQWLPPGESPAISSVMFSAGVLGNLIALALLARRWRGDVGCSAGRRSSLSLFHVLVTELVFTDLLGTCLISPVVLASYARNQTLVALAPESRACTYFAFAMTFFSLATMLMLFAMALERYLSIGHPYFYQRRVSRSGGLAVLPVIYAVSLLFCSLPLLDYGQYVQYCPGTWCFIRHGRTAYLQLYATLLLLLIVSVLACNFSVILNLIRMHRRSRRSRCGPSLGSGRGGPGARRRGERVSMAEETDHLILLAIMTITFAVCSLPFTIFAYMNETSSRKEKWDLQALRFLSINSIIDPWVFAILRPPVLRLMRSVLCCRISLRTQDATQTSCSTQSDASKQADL

Turning to `COc1ccc(F)c2c1cc(C#N)n2CCNc1cc(-c2ccc(C(=O)O)cc2)ncn1` [Example 974, 4-{6-[2-(2-Cyano-7-fluoro-4-methoxy-indol-1-yl)-ethylamino]-pyrimidin-4-yl}-benzoic acid], the values for the half-maximal inhibitory concentration (IC50) at PTGER2 (EP2) and against PTRGER4 (EP4) were 36 nM and 84 nM, respectively.
Regarding `COc1ccc(F)c2c1cc(C#N)n2CCNc1cc(-c2ccnc(N3CCC3)c2)ncn1` [Example 975, 1-{2-[6-(2-Azetidin-1-yl-pyridin-4-yl)-pyrimidin-4-ylamino]-ethyl}-7-fluoro-4-methoxy-1H-indole-2-carbonitrile], the IC50 at PTGER2 (EP2) turned out to be 44 nM; against PTRGER4 (EP4) it was 55 nM.
Taken in the same sequence, the figures for `COc1ccc(F)c2c1cc(C#N)n2CCNc1cc(-c2ccnc(N3CCCCC3)c2)ncn1` [Example 976, 7-Fluoro-4-methoxy-1-{2-[6-(3,4,5,6-tetrahydro-2H-[1,2′]bipyridinyl-4′-yl)-pyrimidin-4-ylamino]-ethyl}-1H-indole-2-carbonitrile] were 194 nM and 317 nM.
On to `COc1ccc(F)c2c1cc(C#N)n2CCNc1cc(-c2ccc3[nH]ncc3c2)ncn1` [Example 977, 7-Fluoro-1-{2-[6-(1H-indazol-5-yl)-pyrimidin-4-ylamino]-ethyl}-4-methoxy-1H-indole-2-carbonitrile], for which the values for the IC50 against PTGER2 (EP2) and at PTRGER4 (EP4) were 5 nM and 6 nM, respectively.
As for `COc1ccc(F)c2c1cc(C#N)n2CCNc1cc(-c2c[nH]c3ncccc23)ncn1` [Example 978, 7-Fluoro-4-methoxy-1-{2-[6-(1H-pyrrolo[2,3-b]pyridin-3-yl)-pyrimidin-4-ylamino]-ethyl}-1H-indole-2-carbonitrile], the 50% inhibitory concentration (IC50) is 1 nM on PTGER2 (EP2) and 16 nM against PTRGER4 (EP4).
Taken in the same sequence, the figures for `COc1ccc(F)c2c1cc(C#N)n2CCNc1cc(-c2cnc3[nH]ccc3c2)ncn1` [Example 979, 7-Fluoro-4-methoxy-1-{2-[6-(1H-pyrrolo[2,3-b]pyridin-5-yl)-pyrimidin-4-ylamino]-ethyl}-1H-indole-2-carbonitrile] were 4 nM and 15 nM.
With `COc1ccc(F)c2c1cc(C#N)n2CCNc1cc(-c2cnc3c(ccn3C)c2)ncn1` [Example 980, 7-Fluoro-4-methoxy-1-{2-[6-(1-methyl-1H-pyrrolo[2,3-b]pyridin-5-yl)-pyrimidin-4-ylamino]-ethyl}-1H-indole-2-carbonitrile], the IC50 at PTGER2 (EP2) amounted to 21 nM; at PTRGER4 (EP4), 12 nM.
Taken in the same sequence, the figures for `COc1cc2[nH]ncc2cc1-c1cc(NCCn2c(C#N)cc3c(OC)ccc(F)c32)ncn1` [Example 981, 7-Fluoro-4-methoxy-1-{2-[6-(6-methoxy-1H-indazol-5-yl)-pyrimidin-4-ylamino]-ethyl}-1H-indole-2-carbonitrile] were 59 nM and 58 nM.
Taken in the same sequence, the figures for `CCNC(=O)Nc1ccc(-c2cc(NCCn3c(C#N)cc4c(OC)ccc(F)c43)ncn2)cc1OC` [Example 982, 1-(4-{6-[2-(2-Cyano-7-fluoro-4-methoxy-indol-1-yl)-ethylamino]-pyrimidin-4-yl}-2-methoxy-phenyl)-3-ethyl-urea] were 18 nM and 3 nM.
With `COc1ccc(F)c2c1cc(C#N)n2CCNc1cc(-c2ccc(CNS(C)(=O)=O)cc2)ncn1` [Example 983, N-(4-{6-[2-(2-Cyano-7-fluoro-4-methoxy-indol-1-yl)-ethylamino]-pyrimidin-4-yl}-benzyl)-methanesulfonamide], the results for the IC50 against PTGER2 (EP2) and against PTRGER4 (EP4) were 248 nM and 244 nM, respectively.
Taken in the same sequence, the figures for `COc1ccc(F)c2c1cc(C#N)n2CCNc1cc(-c2ccc3[nH]cnc3c2)ncn1` [Example 984, 1-{2-[6-(1H-Benzoimidazol-5-yl)-pyrimidin-4-ylamino]-ethyl}-7-fluoro-4-methoxy-1H-indole-2-carbonitrile] were 8 nM and 28 nM.
Taken in the same sequence, the figures for `COc1ccc(F)c2c1cc(C#N)n2CCNc1cc(-c2ccc3nn[nH]c3c2)ncn1` [Example 985, 1-{2-[6-(3H-Benzotriazol-5-yl)-pyrimidin-4-ylamino]-ethyl}-7-fluoro-4-methoxy-1H-indole-2-carbonitrile] were 25 nM and 14 nM.
On to `COc1ccc(F)c2c1cc(C#N)n2CCNc1cc(-c2ccnc(C3CC3)c2)ncn1` [Example 986, 1-{2-[6-(2-Cyclopropyl-pyridin-4-yl)-pyrimidin-4-ylamino]-ethyl}-7-fluoro-4-methoxy-1H-indole-2-carbonitrile], for which the IC50 stood at 9 nM on PTGER2 (EP2) and 66 nM against PTRGER4 (EP4).
Taken in the same sequence, the figures for `COc1ccc(F)c2c1cc(C#N)n2CCNc1cc(-c2ccc3[nH]c(=O)[nH]c3c2)ncn1` [Example 987, 7-Fluoro-1-{2-[6-(2-oxo-2,3-dihydro-1H-benzo[d]imidazol-5-yl)-pyrimidin-4-ylamino]-ethyl}-4-methoxy-1H-indole-2-carbonitrile] were 44 nM and 67 nM.
Taken in the same sequence, the figures for `COc1ccc(F)c2c1cc(C#N)n2CCNc1cc(-c2ccnc(N)c2)ncn1` [Example 988, 1-{2-[6-(2-Amino-pyridin-4-yl)-pyrimidin-4-ylamino]-ethyl}-7-fluoro-4-methoxy-1H-indole-2-carbonitrile] were 51 nM and 197 nM.
Taken in the same sequence, the figures for `COc1ccc(F)c2c1cc(C#N)n2CCNc1cc(-c2ccc(B(O)O)cc2)ncn1` [Example 989, (4-(6-((2-(2-Cyano-7-fluoro-4-methoxy-1H-indol-1-yl)ethyl)amino)pyrimidin-4-yl)phenyl)boronic acid] were 67 nM and 62 nM.
In the case of `COc1ccc(F)c2c1cc(C#N)n2CCNc1cc(-c2ccc3c(c2)CCNC3=O)ncn1` [Example 990, 7-Fluoro-4-methoxy-1-{2-[6-(1-oxo-1,2,3,4-tetrahydro-isoquinolin-6-yl)-pyrimidin-4-ylamino]-ethyl}-1H-indole-2-carbonitrile], the figures for the IC50 against PTGER2 (EP2) and at PTRGER4 (EP4) were 3 nM and 19 nM, respectively.
Take `COc1ncc(-c2cc(NCCn3c(C#N)cc4c(OC)ccc(F)c43)ncn2)cn1` [Example 991, 7-Fluoro-4-methoxy-1-[2-(2′-methoxy-[4,5]bipyrimidinyl-6-ylamino)-ethyl]-1H-indole-2-carbonitrile]: the half-inhibitory concentration (IC50) against PTGER2 (EP2) came to 142 nM; on PTRGER4 (EP4), 540 nM.
Taken in the same sequence, the figures for `CCOc1cc(-c2cc(NCCn3c(C#N)cc4c(OC)ccc(F)c43)ncn2)ccc1C=O` [Example 992, 1-{2-[6-(3-Ethoxy-4-formyl-phenyl)-pyrimidin-4-ylamino]-ethyl}-7-fluoro-4-methoxy-1H-indole-2-carbonitrile] were 27 nM and 35 nM.
Taken in the same sequence, the figures for `COc1ccc(F)c2c1cc(C#N)n2CCNc1cc(-c2c(C)noc2C)ncn1` [Example 993, 1-{2-[6-(3,5-Dimethyl-isoxazol-4-yl)-pyrimidin-4-ylamino]-ethyl}-7-fluoro-4-methoxy-1H-indole-2-carbonitrile] were 80 nM and 344 nM.
Taken in the same sequence, the figures for `COc1ccc(F)c2c1cc(C#N)n2CCNc1cc(-c2ccc3[nH]ccc3c2)ncn1` [Example 994, 7-Fluoro-1-{2-[6-(1H-indol-5-yl)-pyrimidin-4-ylamino]-ethyl}-4-methoxy-1H-indole-2-carbonitrile] were 7 nM and 6 nM.
On to `COc1ccc(F)c2c1cc(C#N)n2CCNc1cc(-c2ccc3nccn3c2)ncn1` [Example 995, 7-Fluoro-1-[2-(6-imidazo[1,2-a]pyridin-6-yl-pyrimidin-4-ylamino)-ethyl]-4-methoxy-1H-indole-2-carbonitrile], for which the results for the IC50 at PTGER2 (EP2) and against PTRGER4 (EP4) were 13 nM and 52 nM, respectively.
For `COCCNC(=O)c1ccc(-c2cc(NCCn3c(C#N)cc4c(OC)ccc(F)c43)ncn2)cc1` [Example 996, 4-{6-[2-(2-Cyano-7-fluoro-4-methoxy-indol-1-yl)-ethylamino]-pyrimidin-4-yl}-N-(2-methoxy-ethyl)-benzamide], the IC50 against PTGER2 (EP2) stood at 39 nM; against PTRGER4 (EP4), 99 nM.
Turning to `COc1ccc(F)c2c1cc(C#N)n2CCNc1cc(-c2ccnc(N3CCCC3)c2)ncn1` [Example 997, 7-Fluoro-4-methoxy-1-{2-[6-(2-pyrrolidin-1-yl-pyridin-4-yl)-pyrimidin-4-ylamino]-ethyl}-1H-indole-2-carbonitrile], the values for the IC50 at PTGER2 (EP2) and on PTRGER4 (EP4) were 58 nM and 143 nM, respectively.
Taken in the same sequence, the figures for `COc1ccc(F)c2c1cc(C#N)n2CCNc1cc(-c2c(C)nn(C)c2C)ncn1` [Example 998, 7-Fluoro-4-methoxy-1-{2-[6-(1,3,5-trimethyl-1H-pyrazol-4-yl)-pyrimidin-4-ylamino]-ethyl}-1H-indole-2-carbonitrile] were 48 nM and 686 nM.
Taken in the same sequence, the figures for `COC(=O)c1ccc(-c2cc(NCCn3c(C#N)cc4c(OC)ccc(F)c43)ncn2)cc1F` [Example 999, 4-{6-[2-(2-Cyano-7-fluoro-4-methoxy-indol-1-yl)-ethylamino]-pyrimidin-4-yl}-2-fluoro-benzoic acid methyl ester] were 30 nM and 23 nM.
Taken in the same sequence, the figures for `COc1ccc(F)c2c1cc(C#N)n2CCNc1cc(-c2ccc3[nH]c(=O)[nH]c3c2)ncn1` [Example 1000, 7-Fluoro-4-methoxy-1-{2-[6-(2-oxo-2,3-dihydro-1H-benzoimidazol-5-yl)-pyrimidin-4-ylamino]-ethyl}-1H-indole-2-carbonitrile] were 35 nM and 79 nM.
With `COc1ccc(F)c2c1cc(C#N)n2CCNc1cc(-c2ccc(O)c(C(F)(F)F)c2)ncn1` [Example 1001, 7-Fluoro-1-{2-[6-(4-hydroxy-3-trifluoromethyl-phenyl)-pyrimidin-4-ylamino]-ethyl}-4-methoxy-1H-indole-2-carbonitrile], the IC50 at PTGER2 (EP2) was determined as 6 nM; against PTRGER4 (EP4), 7 nM.
